One assay concerns the target T1, PF4 (Homo sapiens, UniProt P02776).
T1 construct: platelet factor 4 which is a 70 amino acid, lysine-rich, 7.8 kDa platelet-specific protein; made in house; host or cells: Drosophila Schneider 2 (S2) cells
T1 sequence (P02776 32-101): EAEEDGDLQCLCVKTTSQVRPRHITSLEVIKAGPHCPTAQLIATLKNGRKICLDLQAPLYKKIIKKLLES
Description: DT40 cell (FcγRIIA + NFAT-Luc reporter) activation assay: inhibition by PF4 antagonists. Format: cell-based. The settings on record: for IC50: PF4 10 μg/mL, heparin 0.3 U/mL, KKO 20 μg/mL, luciferase readout after 6 hours; for inhibition of FcγRIIA-dependent cellular activation (in words): activation by KKO, dose-response, FIG. 1C. The procedure: DT40 cells (chicken B cells) were cultured in RPMI supplemented with 10% fetal bovine serum, 1% chicken serum (Gibco), 50 μM 13-mercaptoethanol, 2 mM GlutaMAX (Gibco), 100 U/mL penicillin and 100 U/mL streptomycin at 37° C. under 5% CO2. Cells were co-transfected with 5 μg pEF6-FcγRIIA and 20 μg pEF6-NFAT-Luc by electroporation. Positive transformants were selected using blastidicin.
On day following transfection, cells were pelleted by centrifugation and re-suspended at 2×10^6 cells/mL in fresh medium without serum. Cell aliquots (50 μL) were placed into each well of a 96 well plate. To establish basal expression, 50 μL media was added. Further, the cells were also incubated independently with the following: PF4, heparin, RTO antibody, KKO antibody, ULCs alone, ULCs and RTO; ULCs and KKO and IV.3 antibody. Monoclonal antibody IV.3 (an FcγRIIA-blocking antibody) was used in combination with an anti-Fc antibody to activate FcγRIIA bound by IV.3 as a positive control for FcγRIIA signaling. 8 μg/mL of IV.3 was added for 15 minutes at 37° C. under 5% CO2, followed by 50 μL of sheep anti-mouse-IgG secondary antibody at 15 μg/mL to crosslink and activate these receptors. As a positive control for an intact intracellular signaling pathway, phorbol myristate acetate (PMA; 25 ng/mL) with ionomycin (1 μM) was added (not shown).
We then used this assay to measure the inhibitory capacity of the PF4 antagonist compounds described in the concurrently filed related application referenced above. PF4 (10 μg/mL) and various concentrations of potential antagonists were co-incubated for 60 min at 37° C. under 5% CO2 followed by the addition of heparin (0.3 U/mL) for 15 min at 37° C. in 5% CO2. KKO (20 μg/mL) or plasma from patients with serotonin release assay confirmed HIT (1:800 dilution) was then added. 50 μL of each mixture was added to the 96 well plate containing 50 μL of cells at a concentration of 2×10^6 cells/mL in fresh medium without serum. Plates were incubated for 6 hours at 37° C. under 5% CO2, and then frozen at −80° C. To measure activation, cells were thawed and lysed with 5× Passive Lysis Buffer (Promega) for 15 minutes. Luciferase activity was measured on a Berthold MultiLumat LB 9506 Luminometer (10 sec readings) using Promega's Luciferase Assay Reagent following the manufacturer's instructions. In other experiments, PF4 antagonists discussed herein were incubated with PF4 for 5 minutes with the same results.

The next assay relates to platelets. Description: Serotonin release assay with 14C-labeled platelets. Particulars: for inhibition of platelet activation by KKO (release of 14C-serotonin): KKO 170 μg/mL, heparin 1.0 U/mL, antagonists 2.5 mM, FIG. 1E. Format: cell-based, human. The procedure: To confirm the results of the novel assay, an independent, orthogonal assessment of activity was performed using a serotonin release assay. Serotonin release assays are described in Hirschman, “The use of platelet serotonin release as a sensitive method for detecting anti-platelet antibodies and a plasma anti-platelet factor in patients with idiopathic thrombocytopenic purpura”, Br. J. Haematol., 24(6):793-802 (1973), and Rauova and Cines, “Heparin-associated thrombocytopenia”, N. Engl. J. Med., 303:788-795 (1980), which are hereby incorporated by reference.
Briefly, platelet rich plasma (PRP) from healthy donors was incubated with 0.5 μL ^14C-5-hydroxytryptamine creatinine sulfate (GE Life Sciences, Piscataway, N.J.) per milliliter of PRP for 20 minutes at 37° C. to produce ^14C-labeled platelets. Serotonin uptake was inhibited by adding […] imipramine (Sigma-Aldrich, St. Louis, Mo.) to the PRP.
The radiolabeled platelets were mixed with KKO (170 μg/mL) or with known platelet-activating HIT plasma in the absence (buffer control) or presence of PF4 antagonist compounds 1, 34, 80, 101, and 96. Assays were performed in the presence of heparin (1.0 U/mL) and in the absence of heparin (background). Negative controls without antibody were studied in parallel. Data are expressed as % maximal release of radioactivity with release by the positive control plasma and 1.0 U/mL heparin defined as 100%.

The subject of a further assay is FcγRIIA. Briefly: Activation of DT40 cells transfected with FcγRIIA and a Luc reporter. The class given is cell-based, human. The settings on record: FIG. 1A. The protocol: B cells used in the novel assays of the invention were prepared as follows. NFAT-Luc was kindly provided by Prof Arthur Weiss (Shapiro, “c-rel Regulation of IL-2 gene expression may be mediated through activation of AP-1”, J. Exp. Med., 184(5):1663-1669 (1996), hereby incorporated by reference). The NFAT reporter contains three copies of a composite NFAT-activator protein-1 (AP-1) element from the human interleukin-2 (IL-2) gene promoter, and is activated by binding of NFAT (nuclear factor of activated T-cells). pEF6-FcγRIIA, which contains the human FcγRIIA coding sequence under the control of the human EF-1a promoter, was constructed by cloning a human FcγRIIA IMAGE clone into the multiple cloning site of pEF6c (Invitrogen).
DT40 cells (chicken B cells) were cultured in RPMI supplemented with 10% fetal bovine serum, 1% chicken serum (Gibco), 50 μM 13-mercaptoethanol, 2 mM GlutaMAX (Gibco), 100 U/mL penicillin and 100 U/mL streptomycin at 37° C. under 5% CO2. Cells were co-transfected with 5 μg pEF6-FcγRIIA and 20 μg pEF6-NFAT-Luc by electroporation. Positive transformants were selected using blastidicin. […]
It was next examined whether FcγRIIA activation was heparin-dependent. To do so, activation by KKO was measured using a constant amount of PF4 and increasing amounts of heparin. […]

A value given as a limit tells only on which side of the number the result lay.

Broadly, the IC50 is the concentration that gives 50% inhibition. Consider `CC(=O)C1=C(O)c2cc([N+](=O)[O-])ccc2C1=O` [Compound 1], for which, at PF4, the IC50 is 33 µM.
For the molecule `O=C1CC([PH](=O)O)CO1` (stereo not shown) [Compound 34], at PF4, the IC50 was greater than 500 µM and the “inhibition of FcγRIIA-dependent cellular activation (in words)” value (“inhibition … (in words)” below) was “not inhibitory”.
For the molecule `O=C(O)CCc1ccc(-c2ccc(Cl)cc2)n1CC(=O)O` [Compound 80], on PF4, the IC50 worked out at 440 µM and the “inhibition … (in words)” value was “less potent”. The “inhibition of platelet activation by KKO (release of 14C-serotonin)” value (“inhibition of platelet activation by KKO” for short) in the assay on platelets is listed as “inhibited”.
Regarding `O=C(O)c1ccccc1OP(=O)(O)O` [Compound 96], on PF4, the IC50 was 500 µM and the “inhibition … (in words)” value was “less potent”. Besides, the “inhibition of platelet activation by KKO” value in the assay on platelets is “inhibited”.
For the molecule `CCOC(=O)Cn1c(CCC(=O)O)ccc1-c1ccc(Cl)cc1` [Compound 101], the “inhibition of DT40 activation by human HIT plasma” value on PF4 (HIT plasma 1:800 dilution, similar potency as activation by KKO, FIG. 1D) is listed as “inhibited”. Moreover, at PF4, the IC50 was 100 µM and the “inhibition … (in words)” value is listed as “complete inhibition”. Further, the “inhibition of DT40 activation by KKO and patient samples” value on PF4 (antagonist concentration 500 μM, KKO and plasma from three HIT patients, FIG. 1D) is “completely inhibited”. In the assay with platelets (HIT plasma, several antagonist concentrations, FIG. 1F), the “inhibition of serotonin release from platelets activated by plasma from patients with HIT” value was “inhibited”. The “inhibition of platelet activation by KKO” value in the assay on platelets is listed as “inhibited”.

B1: PF4: platelet factor 4, 70 amino acid, lysine-rich 7.8 kDa platelet-specific CXC chemokine protein (protein, UniProt P02776 32-101, looked up)
Platelet factor 4: T1 sequence (P02776 32-101)
In the case of B1, the “activation of FcγRIIA-expressing DT40 cells, substance added alone” value with FcγRIIA is recorded as “did not activate”.

The record behind these values is US20150037821A1, “METHODS OF IDENTIFYING HIT-ANTIBODIES AND PF4 ANTAGONISTS AND CELL LINES FOR USE THEREIN” (THE TRUSTEES OF THE UNIVERSITY OF PENNSYLVANIA, priority 2012, published 2015).
